Reference: US20080139551A1, “TUMOR NECROSIS FACTOR ALPHA INHIBITORS AND THEIR USE IN THE TREATMENT OF HUMAN DISEASES” (AVANIR PHARMACEUTICALS, priority 2006, published 2008)

Key:
TNF-alpha = TNF-alpha production in LPS-challenged mice, assayed by ELISA; format: in vivo; settings: Mus musculus, inhibition of TNF-alpha production, formulated in FS-1, oral gavage; for inhibition at 10 mg/kg: 10 mpk P.O.
Excerpt: Mice were challenged with LPS to produce TNF-alpha in vivo, and then assayed by ELISA after dosing with or without the TNF-alpha inhibitor (formulated in FS-1 and delivered through oral gavage).

[1] = In vitro incubation with liver microsomes of mouse, metabolite characterisation by HPLC/MS; format: in vitro ADME
Method: (§1) Stock solutions of NVP-VAQ996-NX-1 (2 mmol/L) were prepared in DMSO. Alamethicin solution was prepared (0.125 mmol/L) in water. Uridine 5′-diphosphoglucuronic acid (UDPGA) solution (24 mmol/L) was prepared in phosphate buffer 100 mM pH 7.4. In a further experiment 50 mmol/L gluthationic acid reduced (GSH) in phosphate buffer 100 mM pH 7.4 was added as second co-factor.
(§2) For the characterization of in vitro metabolites NVP-VAQ996-NX-1 was incubated at 37° C. for up to 60 minutes with liver microsomes from mouse and human (Table 3).
(§3) 3 μL liver microsomes, containing 20 mg protein/mL, were mixed with 417 μL phosphate buffer, 60 μL alamethicin solution and 60 μL UDPGA. To this reaction mixture 3 μL stock solution (2 mM in DMSO) of NVP-VAQ996-NX-1 was added and pre-incubated for 3 min at 37° C. After pre-incubation, the final reaction was started by addition of 60 μL of the nicotinamide-adenine-dinucleotide-phosphate (NADPH)-regenerating system, containing isocitrate-dehydrogenase (TU/mL), NADP (1 mmol/L), isocitrate (5 mmol/L). After 1 h, the reaction was stopped with 600 μL ice-cold acetonitrile. Experiments were conducted according to a generic protocol. The reaction mixture was stored at −80° C. The final set-up of the in vitro incubation is shown on Table 4.
(§4) Prior to use, the mixture was centrifuged (10000 g, 5 min) and 500 μL of 1 mL supernatant evaporated to dryness. […]

[2] = In vitro incubation with liver microsomes of human, metabolite characterisation by HPLC/MS; format: in vitro ADME
Method: as §1, §2, §3, §4

[3] = In vitro incubation in plasma from mice; format: in vitro ADME, Balb/c mice; settings: heparinized mouse plasma, 5 μg/ml, 2 or 24 hrs at 37° C.
Method: Heparinized mouse plasma was freshly obtained from Balb/c mice. Samples were incubated with 5 μg/ml NVP-VAQ996 added from a stock solution (1 mg/ml) in DMSO for 2 or 24 hrs at 37° C.
(§5) For protein precipitation, to 100 μL plasma 100 μL ice-cold acetonitrile was added. This procedure was repeated twice during 1 hour and, after centrifugation (10000 g, 5 min), the supernatant was used for further preparation.
(§6) The solvent of the supernatant was evaporated using the Cyclone high speed evaporator (Prolab, Reinach, Switzerland) and the residue reconstituted with water/acetonitrile (95/5; v/v). An aliquot of the final solution was used for the high performance liquid chromatography/mass spectrometry (HPLC/MS) analyses.
The liquid chromatographic separation was performed using an Chorus-220 syringe pump (CS analytics, Beckenried, Switzerland) and a home-made glass capillary column, 150 mm×0.3 mm, filled with Nucleosil C18-HD, particle size 3.5 μm Gradient mobile phase programming was used with a flow rate of 4.5 μL/min. Eluent A was acetonitrile/water (5/95) 10 mM HCOONH4+0.02% trifluoroacetic acid (TFA). Eluent B was acetonitrile/methanol/water (9/5/5)+10 mM HCOONH4+0.02% TFA. The mobile phase was held 2 min. isocratic at 5% B, followed by a linear gradient from 15% B to 95% B over 30 min and a 5 min isocratic phase at 95% B. The column temperature was kept at 40° C. […]

[4] = Metabolite identification in plasma after p.o. administration to mice; parameters: species or system Balb/c mice; settings: in vivo in plasma after p.o. administration of 10 mg/kg to mice
Method: Female Balb/c mice (Charles River) were housed under standard conditions with free access to food and drinking water throughout the experiment. The mice (n=4) were treated perorally with 10 mg/kg NVP-VAQ996-NX-1 (at 5 mL/kg) by gavage. At the allotted time points mice blood samples were obtained into heparinized tubes (30 IU/mL). The liver was removed intact, weighed and snap frozen before storage at −70° C. until analyzed.
as §5, §6
The liquid chromatographic separation was performed using an Chorus-220 syringe pump (CS analytics, Beckenried, Switzerland) and a home-made glass capillary column, 150 mm×0.3 mm, filled with Nucleosil C18-HD, particle size 3.5 μm Gradient mobile phase programming was used with a flow rate of 4.5 μL/min. Eluent A was acetonitrile/water (5/95) 10 mM HCOONH4+0.02% trifluoroacetic acid (TFA). […]

For `CCOC(=O)c1c(N2CCNCC2)c2ccccc2n(Cc2ccc(F)cc2)c1=O` [Compound 101], which inhibition at 10 mg/kg (TNF-alpha) is on record?
The inhibition at 10 mg/kg was 43.4%.

With `N#Cc1c(N2CCNCC2)c2ccccc2n(CC(=O)c2ccccc2)c1=O` [Compound 102] as the compound, how does the inhibition at 10 mg/kg (TNF-alpha) read?
Its inhibition at 10 mg/kg is 36.5%.

With `Cc1ccc2c(c1)c(N1CCNCC1)c(C#N)c(=O)n2CC(=O)c1ccccc1` [Compound 103] as the compound, how does the inhibition at 10 mg/kg (TNF-alpha) read?
Its inhibition at 10 mg/kg is 67.3%.

For `Cc1ccc2c(c1)c(N1CCNCC1)c(C#N)c(=O)n2C` [Compound 105], which inhibition at 10 mg/kg (TNF-alpha) is on record?
Its inhibition at 10 mg/kg is 21%.

Which inhibition at 10 mg/kg (TNF-alpha) does the source give for `Cn1c(=O)c([N+](=O)[O-])c(N2CCNCC2)c2ccccc21` [Compound 108] here?
Its inhibition at 10 mg/kg is 26.2%.

With `CCOC(=O)c1c(N2CCNCC2)c2sccc2n(Cc2cccc(F)c2)c1=O` [Compound 113] as the compound, how does the inhibition at 3 mg/kg (TNF-alpha; 3 mg/kg P.O., read-out: % Inhibition (tested at 3 mg/kg)) read?
The inhibition at 3 mg/kg was 84.1%.

Which inhibition at 10 mg/kg (TNF-alpha) does the source give for `Cc1ccc2c(c1)c(N1CCN(C)CC1)c(C#N)c(=O)n2CC(=O)c1ccccc1` [Compound 114] here?
Its inhibition at 10 mg/kg is 51.6%.

Which inhibition at 10 mg/kg (TNF-alpha) does the source give for `CC(=O)N1CCN(c2c(C#N)c(=O)n(CC(=O)c3ccccc3)c3ccc(C)cc23)CC1` [Compound 115] here?
The inhibition at 10 mg/kg was 41.3%.

Which inhibition at 10 mg/kg (TNF-alpha) does the source give for `CN1CCN(c2c(C#N)c(=O)n(CC(=O)c3ccccc3)c3ccccc23)CC1` [Compound 116] here?
Its inhibition at 10 mg/kg is 29.4%.

Which main metabolite ([1]; after in vitro incubation with liver microsomes of mouse) does the source give for `N#Cc1c(N2CCN(C(=O)c3cccs3)CC2)c2ccccc2n(CC(=O)c2ccccc2)c1=O` [NVP-VAQ996-NX] here?
The main metabolite was “NVP-VAR235-NX”.

And the “metabolic degradation with liver microsomes” value ([1]; mouse liver microsomes 0.1 mg/ml, 5 μM, 37° C., up to 60 min)?
Its value is “high”.

And the main metabolite ([2]; after in vitro incubation with liver microsomes of human)?
The main metabolite was “NVP-VAR235-NX”.

What about the “metabolic degradation with liver microsomes” value ([2]; human liver microsomes 0.1 mg/ml, 5 μM, 37° C., up to 60 min) of the same compound?
Its value is “high”.

And the “rate of degradation to metabolite ml in plasma” value [3]?
Its value is “high”.

What about the main metabolite [4] of the same compound?
The main metabolite was “NVP-VAR235-NX”.
